“Also recorded” adds a separate entry of the source.
Test system: maternal autoantibodies (plasma from mothers of ASD and TD children)
Experiment: NSE 15-mer peptide microarray epitope mapping probed with maternal plasma
Type: binding, human
Conditions: for Specific binding: group whose antibodies recognize the sequence; for ASD + N = 19 (number of positive samples) / ASD + N = 8 (number of positive samples): mothers of ASD children; for ASD + N = 19 (number of positive samples) / TD + N = 10 (number of positive samples) / ASD + N = 8 (number of positive samples) / TD + N = 11 (number of positive samples): positive if FI >200; for TD + N = 10 (number of positive samples) / TD + N = 11 (number of positive samples): mothers of TD children

Row | Substance | Specific binding (ELISA positive samples) | ASD + N = 19 (number of positive samples) (ELISA positive samples) | TD + N = 10 (number of positive samples) (ELISA positive samples) | Specific binding (ELISA negative samples) | also measured
1 | 411 (LAKYNQLMRIEEELG; listed as Homo sapiens) [compound 411] | ASD | 3 | 0 | – | –
2 | 218 (GGFAPNILENSEALE; listed as Homo sapiens) [compound 218] | ASD | 3 | 0 | – | –
3 | QDFVRDYPVVSIEDP (listed as Homo sapiens) [ES 288] | – | – | – | ASD-specific | –
4 | YPVVSIEDPFDQDDW (listed as Homo sapiens) [ES 294] | – | – | – | – | Specific binding (ELISA positive samples, listed as SEQ ID NO:8): recognized by plasma from both sample groups; also recorded: recognized by antibodies in both experimental groups
5 | 291 (VRDYPVVSIEDPFDQ; listed as Homo sapiens) [compound 291] | – | – | – | ASD and TD | ASD + N = 8 (number of positive samples) (ELISA negative samples): 4; TD + N = 11 (number of positive samples) (ELISA negative samples): 4
6 | 279 (TGDQLGALYQDFVRD; listed as Homo sapiens) [compound 279] | ASD | 5 | 0 | – | –
7 | 295 (PVVSIEDPFDQDDWA; listed as Homo sapiens) [compound 295] | – | 5 | 2 | ASD and TD | ASD + N = 8 (number of positive samples) (ELISA negative samples): 4; TD + N = 11 (number of positive samples) (ELISA negative samples): 3
8 | 407 (RSERLAKYNQLMRIE; listed as Homo sapiens) [compound 407] | ASD | 3 | 0 | – | –
9 | 412 (AKYNQLMRIEEELGD; listed as Homo sapiens) [compound 412] | ASD | 3 | 0 | – | –
10 | VVSIEDPFDQDDWAA (listed as Homo sapiens) [ES 296] | – | – | – | – | Specific binding (ELISA positive samples, listed as SEQ ID NO:10): recognized by plasma from both sample groups; also recorded: recognized by antibodies in both experimental groups
11 | 416 (QLMRIEEELGDEARF; listed as Homo sapiens) [compound 416] | ASD | 3 | 0 | – | –
12 | 290 (FVRDYPVVSIEDPFD; listed as Homo sapiens) [compound 290] | – | – | – | ASD and TD | ASD + N = 8 (number of positive samples) (ELISA negative samples): 3; TD + N = 11 (number of positive samples) (ELISA negative samples): 1
13 | 408 (SERLAKYNQLMRIEE; listed as Homo sapiens) [compound 408] | ASD | 6 | 0 | – | –
14 | 296 (VVSIEDPFDQDDWAA; listed as Homo sapiens) [compound 296] | – | 4 | 1 | ASD and TD | ASD + N = 8 (number of positive samples) (ELISA negative samples): 4; TD + N = 11 (number of positive samples) (ELISA negative samples): 2
15 | 413 (KYNQLMRIEEELGDE; listed as Homo sapiens) [compound 413] | ASD | 3 | 0 | – | –
16 | 252 (DVAASEFYRDGKYDL; listed as Homo sapiens) [compound 252] | ASD | 3 | 0 | – | –

Row | Substance | Specific binding (ELISA positive samples) | ASD + N = 19 (number of positive samples) (ELISA positive samples) | TD + N = 10 (number of positive samples) (ELISA positive samples) | Specific binding (ELISA negative samples) | also measured
17 | DYPVVSIEDPFDQDD (listed as Homo sapiens) [ES 293] | – | – | – | – | Specific binding (ELISA positive samples, listed as SEQ ID NO:7): recognized by plasma from both sample groups; also recorded: recognized by antibodies in both experimental groups
18 | 299 (IEDPFDQDDWAAWSK; listed as Homo sapiens) [compound 299] | ASD | 2 | 0 | – | –
19 | 297 (VSIEDPFDQDDWAAW; listed as Homo sapiens) [compound 297] | – | 4 | 1 | ASD and TD | ASD + N = 8 (number of positive samples) (ELISA negative samples): 2; TD + N = 11 (number of positive samples) (ELISA negative samples): 2
20 | 294 (YPVVSIEDPFDQDDW; listed as Homo sapiens) [compound 294] | – | 8 | 4 | ASD and TD | ASD + N = 8 (number of positive samples) (ELISA negative samples): 5; TD + N = 11 (number of positive samples) (ELISA negative samples): 7
21 | 298 (SIEDPFDQDDWAAWS; listed as Homo sapiens) [compound 298] | ASD | 4 | 0 | – | –
22 | 281 (DQLGALYQDFVRDYP; listed as Homo sapiens) [compound 281] | ASD | 3 | 0 | – | –
23 | 292 (RDYPVVSIEDPFDQD; listed as Homo sapiens) [compound 292] | – | – | – | ASD and TD | ASD + N = 8 (number of positive samples) (ELISA negative samples): 5; TD + N = 11 (number of positive samples) (ELISA negative samples): 2
24 | 280 (GDQLGALYQDFVRDY; listed as Homo sapiens) [compound 280] | ASD | 3 | 0 | – | –
25 | 288 (QDFVRDYPVVSIEDP; listed as Homo sapiens) [compound 288] | – | – | – | ASD | ASD + N = 8 (number of positive samples) (ELISA negative samples): 3; TD + N = 11 (number of positive samples) (ELISA negative samples): 0
26 | 289 (DFVRDYPVVSIEDPF; listed as Homo sapiens) [compound 289] | ASD | 3 | 0 | – | –
27 | 409 (ERLAKYNQLMRIEEE; listed as Homo sapiens) [compound 409] | ASD | 7 | 0 | – | –
28 | VSIEDPFDQDDWAAW (listed as Homo sapiens) [ES 297] | – | – | – | – | Specific binding (ELISA positive samples, listed as SEQ ID NO:11): recognized by plasma from both sample groups; also recorded: recognized by antibodies in both experimental groups
29 | 293 (DYPVVSIEDPFDQDD; listed as Homo sapiens) [compound 293] | – | 6 | 4 | ASD and TD | ASD + N = 8 (number of positive samples) (ELISA negative samples): 6; TD + N = 11 (number of positive samples) (ELISA negative samples): 7
30 | PVVSIEDPFDQDDWA (listed as Homo sapiens) [ES 295] | – | – | – | – | Specific binding (ELISA positive samples, listed as SEQ ID NO:9): recognized by plasma from both sample groups; also recorded: recognized by antibodies in both experimental groups
31 | 410 (RLAKYNQLMRIEEEL; listed as Homo sapiens) [compound 410] | ASD | 5 | 0 | – | –

From patent US20220324913A1, “ANTIGENIC NEURON SPECIFIC ENOLASE PEPTIDES FOR DIAGNOSING AND TREATING AUTISM” (THE REGENTS OF THE UNIVERSITY OF CALIFORNIA, priority 2019, published 2022)
